Experimental data published in BindingDB's records for PubMed 39270452 (Haihe Biopharma).

Molecular target: T1, Ectonucleotide pyrophosphatase/phosphodiesterase family member 1 (Homo sapiens, UniProt P22413)
T1 sequence (P22413 whole entry): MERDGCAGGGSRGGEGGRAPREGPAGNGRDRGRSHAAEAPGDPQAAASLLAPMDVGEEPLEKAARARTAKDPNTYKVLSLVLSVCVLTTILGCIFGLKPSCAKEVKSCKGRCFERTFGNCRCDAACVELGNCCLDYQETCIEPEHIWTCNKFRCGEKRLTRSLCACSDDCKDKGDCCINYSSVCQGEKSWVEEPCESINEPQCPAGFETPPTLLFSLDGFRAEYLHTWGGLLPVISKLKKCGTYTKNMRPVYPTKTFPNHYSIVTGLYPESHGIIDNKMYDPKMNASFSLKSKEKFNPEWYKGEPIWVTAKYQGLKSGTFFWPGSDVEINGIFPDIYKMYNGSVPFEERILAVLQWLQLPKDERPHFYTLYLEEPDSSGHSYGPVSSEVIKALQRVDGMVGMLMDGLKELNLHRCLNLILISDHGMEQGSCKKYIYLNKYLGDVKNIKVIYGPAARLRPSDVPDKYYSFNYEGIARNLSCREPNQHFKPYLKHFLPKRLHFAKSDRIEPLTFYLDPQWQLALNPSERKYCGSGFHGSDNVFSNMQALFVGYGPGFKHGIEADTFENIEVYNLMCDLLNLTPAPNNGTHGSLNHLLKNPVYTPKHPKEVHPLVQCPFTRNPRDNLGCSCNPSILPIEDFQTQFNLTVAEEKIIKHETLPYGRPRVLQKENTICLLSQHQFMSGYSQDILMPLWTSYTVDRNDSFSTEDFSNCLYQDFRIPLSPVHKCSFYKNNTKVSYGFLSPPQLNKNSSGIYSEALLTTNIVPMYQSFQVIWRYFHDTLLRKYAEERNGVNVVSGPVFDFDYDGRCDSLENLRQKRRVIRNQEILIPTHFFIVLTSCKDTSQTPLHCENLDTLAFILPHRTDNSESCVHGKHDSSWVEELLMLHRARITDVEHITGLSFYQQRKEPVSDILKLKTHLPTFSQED
Assay: Inhibition of human recombinant ENPP1 at pH 7.5

COc1cc2nccc(Nc3ccc(CC(=O)NO)cc3)c2cc1OC [US20240383893, Compound A-1]
IC50: 89 nM
